Measurements taken from US20060057133A1, “Topical pathogenic-tissue-destroying liquid” (priority 2002, published 2006).

Experiments:
diseased tissue = assay: topical application of acids, enzymes and the topical liquid to skin, mucous membranes and diseased tissue; conditions: for aggressiveness toward the skin and mucous membranes / tissues: topical use while selecting components of the mixture
From the text: The topical liquid or aqueous composition is composed of substances such as nitric acid and enzymes, mucins and ptyalin which are combined to form an aqueous pharmaceutical composition which is applied to the infected tissues and selectively attacks the cells of the diseased tissue or tumour. This composition is applied to the tissues which are to be eliminated, in dabs which are applied using a cotton swab moistened with the topical liquid that destroys the pathogenic tissue. It is applied to the diseased tissue as necessary, until the tissue changes colour and a small clear or pink halo appears round the treated tissue. The site is then washed with clean water. When applied to the mucous membranes, washing after application of the pathogenic-tissue destroying topical liquid is not necessary. […] However, this sometimes depends on the sensitivity of the individual (only individuals who have a tendency to form keloid scars will be left with a slight sign).

[1] = tested on: herpes simplex virus type 1; conditions: 4 mM, cited from earlier work

Compound	aggressiveness toward the skin and mucous membranes / tissues (diseased tissue)	also measured
O=[N+]([O-])O [Nitric acid]	least aggressive	
O=C(O)CC(O)(CC(=O)O)C(=O)O [citric acid]		coagulation of the diseased tissue (diseased tissue; topical application): did not succeed in coagulating the diseased tissue
O=C(O)C(O)CO (stereo not drawn) [glyceric acid]		synthesis of glycoproteins in normal cells ([1]; normal cells): slightly affected; production of the virus inhibited [1]: 99%
Cl [hydrochloric acid]	too aggressive	
O=S(=O)(O)O [sulphuric, sulphuric acid]	too aggressive	
